Test: Water activity of humectant solutions (AquaLab CX-2)
Type: physicochemical
Conditions: solution concentration 8%
Experimental: (§1) Water activity (aw) is a measure of the amount of free water available to a microorganism to support growth. Water activity expresses the active portion of the water content as opposed to the total moisture content, which includes “bound water.” The measurements were conducted using the AquaLab CX-2 by Decagon Devices, Inc. by utilizing the chilled mirror/dew point hygrometric methodology for determining water activity. The cellulose sponge was cut into a disk having a 1.5″ inch diameter and 1/16 inch thick.
A commercially available magnesium chloride hexahydrate (MgCl2.6H2O) (EMD Chemical Company, Gibbstown, N.J.), sodium chloride (NaCl) (Fisher Scientific Company, Fair Lawn, N.J.), potassium chloride (KCl) (EMD Chemical Company, Gibbstown, N.J.), and glycerol (EMD Chemical Company, Gibbstown, N.J.) was mixed to obtain a desired concentration. The solution was measured for water activity using the AquaLab CX-2 by Decagon Devices, Inc. The water activity for those solutions is presented in Table 7.

Row | Water Activity of humectant solution | Compound
1 | 0.973 | O=C([O-])[O-].[K+].[K+] [Formulation K2CO3]
2 | 0.975 | OCC(O)CO [Glycerol, glycerol]
3 | 0.944 | O.O.O.O.O.O.[Cl-].[Cl-].[Mg+2] [MgCl2, magnesium chloride hexahydrate (MgCl2.6H2O)]

Row | Compound | Water Activity of humectant solution
4 | [Cl-].[K+] [KCl, potassium chloride] | 0.952
5 | [Cl-].[Na+] [NaCl, sodium chloride] | 0.949

Same assay, conditions: solution concentration 10%

Row | Water Activity of humectant solution | Compound
6 | 0.960 | O=C([O-])[O-].[K+].[K+] [Formulation K2CO3]
7 | 0.971 | OCC(O)CO [Glycerol, glycerol]
8 | 0.926 | O.O.O.O.O.O.[Cl-].[Cl-].[Mg+2] [MgCl2, magnesium chloride hexahydrate (MgCl2.6H2O)]

Row | Compound | Water Activity of humectant solution
9 | [Cl-].[K+] [KCl, potassium chloride] | 0.950
10 | [Cl-].[Na+] [NaCl, sodium chloride] | 0.936

Same assay, conditions: solution concentration 12%

Row | Water Activity of humectant solution | Compound
11 | 0.957 | O=C([O-])[O-].[K+].[K+] [Formulation K2CO3]
12 | 0.966 | OCC(O)CO [Glycerol, glycerol]
13 | 0.904 | O.O.O.O.O.O.[Cl-].[Cl-].[Mg+2] [MgCl2, magnesium chloride hexahydrate (MgCl2.6H2O)]

Row | Compound | Water Activity of humectant solution
14 | [Cl-].[K+] [KCl, potassium chloride] | 0.938
15 | [Cl-].[Na+] [NaCl, sodium chloride] | 0.919

Same assay, conditions: solution concentration 14%

Row | Water Activity of humectant solution | Compound
16 | 0.962 | OCC(O)CO [Glycerol, glycerol]
17 | 0.876 | O.O.O.O.O.O.[Cl-].[Cl-].[Mg+2] [MgCl2, magnesium chloride hexahydrate (MgCl2.6H2O)]

Row | Compound | Water Activity of humectant solution
18 | [Cl-].[K+] [KCl, potassium chloride] | 0.928

Same assay, conditions: solution concentration 16%

Row | Water Activity of humectant solution | Compound
19 | 0.943 | O=C([O-])[O-].[K+].[K+] [Formulation K2CO3]
20 | 0.955 | OCC(O)CO [Glycerol, glycerol]
21 | 0.847 | O.O.O.O.O.O.[Cl-].[Cl-].[Mg+2] [MgCl2, magnesium chloride hexahydrate (MgCl2.6H2O)]

Row | Compound | Water Activity of humectant solution
22 | [Cl-].[K+] [KCl, potassium chloride] | 0.915
23 | [Cl-].[Na+] [NaCl, sodium chloride] | 0.887

Same assay, conditions: solution concentration 18%

Row | Water Activity of humectant solution | Compound
24 | 0.950 | OCC(O)CO [Glycerol, glycerol]
25 | 0.841 | O.O.O.O.O.O.[Cl-].[Cl-].[Mg+2] [MgCl2, magnesium chloride hexahydrate (MgCl2.6H2O)]

Row | Compound | Water Activity of humectant solution
26 | [Cl-].[K+] [KCl, potassium chloride] | 0.904

Same assay, conditions: solution concentration 20%

Row | Water Activity of humectant solution | Compound
27 | 0.925 | O=C([O-])[O-].[K+].[K+] [Formulation K2CO3]
28 | 0.944 | OCC(O)CO [Glycerol, glycerol]
29 | 0.768 | O.O.O.O.O.O.[Cl-].[Cl-].[Mg+2] [MgCl2, magnesium chloride hexahydrate (MgCl2.6H2O)]

Row | Compound | Water Activity of humectant solution
30 | [Cl-].[K+] [KCl, potassium chloride] | 0.891
31 | [Cl-].[Na+] [NaCl, sodium chloride] | 0.842

Same assay, conditions: solution concentration 22%

Row | Compound | Water Activity of humectant solution
32 | OCC(O)CO [Glycerol, glycerol] | 0.939
33 | [Cl-].[K+] [KCl, potassium chloride] | 0.875

Same assay, conditions: solution concentration 24%

Row | Compound | Water Activity of humectant solution
34 | OCC(O)CO [Glycerol, glycerol] | 0.934
35 | [Cl-].[K+] [KCl, potassium chloride] | 0.859

Same assay, conditions: solution concentration 50%

Row | Water Activity of humectant solution | Compound
36 | 0.811 | OCC(O)CO [Glycerol, glycerol]

Test: Water activity of humectants in cellulose sponges (AquaLab CX-2)
Type: physicochemical
Conditions: 10 wt. % of input solution
Experimental: Water Activity (aw) in the Cellulose Sponges
as §1
A prepared cellulose sponge was soaked for 20 minutes in one of the MgCl2 or NaCl humectant solutions from Example 3. After soaking, the cellulose sponge was squeezed out between squeeze rolls and then immediately placed into airtight plastic bags. The samples were tested for water activity within 24 hours.

Row | Compound | Water Activity of humectant in cellulose sponge
37 | O.O.O.O.O.O.[Cl-].[Cl-].[Mg+2] [MgCl2, magnesium chloride hexahydrate (MgCl2.6H2O)] | 0.913
38 | [Cl-].[Na+] [NaCl, sodium chloride] | 0.926

Same assay, conditions: 12 wt. % of input solution

Row | Compound | Water Activity of humectant in cellulose sponge
39 | O.O.O.O.O.O.[Cl-].[Cl-].[Mg+2] [MgCl2, magnesium chloride hexahydrate (MgCl2.6H2O)] | 0.896
40 | [Cl-].[Na+] [NaCl, sodium chloride] | 0.921

Same assay, conditions: 14 wt. % of input solution

Row | Compound | Water Activity of humectant in cellulose sponge
41 | O.O.O.O.O.O.[Cl-].[Cl-].[Mg+2] [MgCl2, magnesium chloride hexahydrate (MgCl2.6H2O)] | 0.890
42 | [Cl-].[Na+] [NaCl, sodium chloride] | 0.900

Same assay, conditions: 16 wt. % of input solution

Row | Compound | Water Activity of humectant in cellulose sponge
43 | [Cl-].[Na+] [NaCl, sodium chloride] | 0.881

Source: patent publication US8304454B2, “Antimicrobial cellulose sponge and method of making” (3M Innovative Properties Company, priority 2007, dated 2012)
